In patent US20120178815A1, “Compositions of (-)-E-10-OH-NT and Methods for Their Synthesis and Use” (Adolor Corporation, priority 2007, published 2012):
“Also recorded” adds a separate entry of the source.

How the values were obtained:
[1] = biological target: T1, 5HT uptake, rat brain synaptosomes (Rattus norvegicus, UniProt P31652); experiment: Inhibition of [3H]-5HT uptake into synaptosomes; assay type: biochemical; details: read-out: Monoamine Uptake Inhibition, 5HT, IC50
T1 construct: into rat brain synaptosomes; from tissue; host or cells: rat brain synaptosomes
T1 sequence (P31652 whole entry): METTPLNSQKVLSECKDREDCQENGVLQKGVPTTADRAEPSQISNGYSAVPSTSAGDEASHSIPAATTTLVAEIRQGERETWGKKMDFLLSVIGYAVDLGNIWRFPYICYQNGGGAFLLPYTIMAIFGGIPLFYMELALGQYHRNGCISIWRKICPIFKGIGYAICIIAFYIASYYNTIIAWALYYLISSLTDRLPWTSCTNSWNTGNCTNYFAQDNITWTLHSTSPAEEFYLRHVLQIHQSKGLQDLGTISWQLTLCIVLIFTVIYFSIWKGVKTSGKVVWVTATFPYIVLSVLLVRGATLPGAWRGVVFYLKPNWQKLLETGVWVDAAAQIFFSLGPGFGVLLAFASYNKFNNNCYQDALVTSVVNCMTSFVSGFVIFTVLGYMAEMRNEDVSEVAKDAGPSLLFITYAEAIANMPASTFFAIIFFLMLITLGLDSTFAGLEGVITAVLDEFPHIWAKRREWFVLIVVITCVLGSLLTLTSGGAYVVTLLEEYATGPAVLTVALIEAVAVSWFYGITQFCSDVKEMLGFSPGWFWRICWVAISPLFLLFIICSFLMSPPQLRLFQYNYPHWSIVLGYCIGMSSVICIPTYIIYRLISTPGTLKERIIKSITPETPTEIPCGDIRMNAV

[2] = biological target: T2, human H1 histaminergic receptor (Homo sapiens, UniProt P35367); experiment: H1 histaminergic receptor competitive binding assay, [3H]pyrilamine; details: for reduction of H1 histaminergic receptor affinity compared to AT: relative to AT; for reduction of H1 histaminergic receptor affinity compared to NT: relative to NT
T2 construct: expressed in transfected cells; host or cells: HEK-293 cells (membranes)
T2 sequence (P35367 whole entry): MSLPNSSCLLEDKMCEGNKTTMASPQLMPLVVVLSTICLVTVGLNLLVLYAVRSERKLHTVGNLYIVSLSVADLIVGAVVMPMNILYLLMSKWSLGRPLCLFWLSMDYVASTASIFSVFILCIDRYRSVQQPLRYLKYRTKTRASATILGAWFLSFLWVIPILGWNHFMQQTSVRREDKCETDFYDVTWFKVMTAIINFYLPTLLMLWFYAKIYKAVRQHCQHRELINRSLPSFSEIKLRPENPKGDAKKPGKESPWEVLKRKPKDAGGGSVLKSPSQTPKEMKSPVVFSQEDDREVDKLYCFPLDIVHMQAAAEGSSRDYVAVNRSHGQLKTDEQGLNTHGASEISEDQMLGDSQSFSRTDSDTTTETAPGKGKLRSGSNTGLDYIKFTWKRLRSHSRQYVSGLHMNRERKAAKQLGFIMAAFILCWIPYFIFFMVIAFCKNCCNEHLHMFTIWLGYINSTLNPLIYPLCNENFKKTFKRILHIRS
Experimental: Protocol. The affinities of AT, NT, (+)-E-10-OH-NT and (−)-E-10-OH-NT for the H1 histaminergic receptor were assessed in a competitive binding assay. For the assay, [^3H]pyrilamine (3 nM) was incubated with various concentrations of test compound for 1 hour at 22° C. with membranes prepared from human embryonic kidney (HEK-293) cells heterologously expressing the cloned human H1 histaminergic receptor. Bound radioactivity was determined by scintillation spectroscopy. Non-specific binding was defined as the amount of binding that occurred in the presence of 1.0 μM unlabeled pyrilamine.

α2b adrenergic receptor = biological target: T3, α2b adrenergic receptor (Homo sapiens, UniProt P18089); experiment: α2b adrenergic receptor binding, [3H]RX821002; details: read-out: Affinity at α2b adrenergic receptor, Ki
T3 construct: expressed in transfected cells; host or cells: CHO cells
T3 sequence (P18089 whole entry): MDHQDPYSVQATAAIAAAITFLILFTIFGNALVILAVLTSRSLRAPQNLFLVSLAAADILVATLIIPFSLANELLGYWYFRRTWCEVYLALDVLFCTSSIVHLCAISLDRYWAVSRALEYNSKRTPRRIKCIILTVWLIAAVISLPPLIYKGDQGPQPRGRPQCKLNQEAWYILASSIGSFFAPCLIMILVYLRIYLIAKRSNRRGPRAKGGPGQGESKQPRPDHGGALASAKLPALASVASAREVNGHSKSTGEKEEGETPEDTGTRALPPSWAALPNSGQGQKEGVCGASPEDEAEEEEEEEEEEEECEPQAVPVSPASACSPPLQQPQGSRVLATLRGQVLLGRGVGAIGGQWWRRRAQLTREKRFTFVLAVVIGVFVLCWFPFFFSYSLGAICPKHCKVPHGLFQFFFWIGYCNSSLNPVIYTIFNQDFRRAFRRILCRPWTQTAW
Experimental: Nonspecific binding was determined in the presence of 100 μM (−)-epinephrine. Bound radioactivity was determined by scintillation spectroscopy.

[3] = biological target: T4, human muscarinic receptor M3 (Homo sapiens, UniProt P20309); experiment: Muscarinic M3 receptor binding, [3H]4-DAMP; details: read-out: Affinity for Muscarinic Receptors, M3, Ki
T4 construct: expressed in transfected cells; host or cells: CHO cells (membranes)
T4 sequence (P20309 whole entry): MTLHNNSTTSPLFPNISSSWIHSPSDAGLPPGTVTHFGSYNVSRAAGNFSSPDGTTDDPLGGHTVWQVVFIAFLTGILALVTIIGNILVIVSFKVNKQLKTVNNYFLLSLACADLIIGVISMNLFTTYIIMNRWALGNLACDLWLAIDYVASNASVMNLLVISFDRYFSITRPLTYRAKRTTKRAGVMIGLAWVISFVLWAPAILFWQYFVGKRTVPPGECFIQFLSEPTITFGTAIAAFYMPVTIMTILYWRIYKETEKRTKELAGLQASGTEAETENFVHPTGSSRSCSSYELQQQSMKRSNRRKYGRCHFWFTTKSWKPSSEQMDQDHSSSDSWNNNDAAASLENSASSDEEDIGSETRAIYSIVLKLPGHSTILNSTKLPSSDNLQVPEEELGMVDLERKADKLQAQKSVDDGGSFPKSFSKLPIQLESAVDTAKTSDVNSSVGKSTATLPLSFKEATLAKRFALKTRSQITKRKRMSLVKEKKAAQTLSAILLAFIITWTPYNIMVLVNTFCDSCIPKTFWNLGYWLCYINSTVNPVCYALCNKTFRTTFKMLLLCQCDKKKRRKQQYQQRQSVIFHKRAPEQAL
Experimental: Protocol. […] Bound radioactivity was determined by scintillation spectroscopy. Non-specific binding was defined as the amount of bound radioligand in the presence of 1.0 μM atropine. Radioligand for the M1 receptor was [^3H]pirenzepine (2 nM). Radioligand for the M2 receptor was [^3H]AF-DX384 (2 nM). Radioligand for the M3, M4, and M5 receptors was [^3H]4-DAMP.

[4] = system: gastrointestinal transit in Swiss-Webster mice; experiment: Mouse gastrointestinal transit (charcoal meal) assay; assay type: in vivo; details: relative to sterile water vehicle, 1, 2 or 4 hours before charcoal meal
Experimental: Protocol. The inhibitory effect of AT, NT and (−)-E-10-OH-NT were assessed in a rodent model of gastrointestinal transit. For the assay, male Swiss-Webster mice (20-25 g) were fasted overnight and treated with test compound or sterile water vehicle control 1, 2 or 4 hours before per oral administration of a charcoal meal consisting of charcoal:flour:water (1:2:8, w:w:w). Gastrointestinal transit was measured 25 minutes after the charcoal meal. (−)-E-10-OH-NT was administered as either the maleate or succinate salt; AT and NT were administered as hydrochloride salts; the dosage amounts are based on the amount of free base.
Gastrointestinal transit (GIT) was determined by removing the entire length of the small intestine and measuring how far the leading edge of the charcoal meal traveled in the small intestine. The percent GIT (% GIT) was determined by the following formula:
% GIT=[distance to charcoal leading edge (cm)/length of small intestine (cm)×100]

[5] = system: L5 SNL rats, tactile allodynia; experiment: L5-Single Nerve Ligation model of neuropathic pain (von Frey); assay type: in vivo, rat; details: 30 mg/kg; for antiallodynic activity: i.p.
Experimental: Protocol. […] The test animals were placed in a Plexiglas chamber (10 cm×20 cm×25 cm) and habituated for 15 minutes. The chamber was positioned on top of a mesh screen so that von Frey monofilaments could be presented to the plantar surface of both hindpaws. Measurement of tactile sensitivity for each hindpaw were obtained using the up/down method (Dixon, 1980) with seven Frey monofilaments (0.4, 1, 2, 4, 6, 8 and 15 grams). Each trial started with a von Frey force of 2 grams delivered to the right hindpaw for approximately 1-2 seconds and then the left hindpaw. If there was no withdrawal response, the next higher force was delivered. If there was a response, the next lower force was delivered. This procedure was performed until no response was made at the highest force (15 grams) or until four stimuli were administered following the initial response. Each test group contained 8 animals. The sham-operated control group, which were operated on but not subject to nerve ligation, contained 4 animals. All animals were tested at 60 minutes, and 240 minutes, post-administration of test compounds.
The 50% paw withdrawal threshold for each paw was calculated using the following formula: [Xth] log=[vFr] log+ky where [vFr] is the force of the last von Frey used, k=0.2249 which is the average interval (in log units) between the von Frey monofilaments, and y is a value that depends upon the pattern of withdrawal responses (Dixon, 1980). […] Testing for tactile sensitivity was performed twice and the mean 50% withdrawal value assigned as the tactile sensitivity for the right and left paws for each animal.
The E-10-OH-NT compounds were administered as either a maleate or succinate salt. AT was administered as a hydrochloride salt. Dosage amounts are based on the amount of free base. The test animals were placed in a Plexiglas chamber (10 cm×20 cm×25 cm) and habituated for 15 minutes. The chamber was positioned on top of a mesh screen so that von Frey monofilaments could be presented to the plantar surface of both hindpaws. Measurement of tactile sensitivity for each hindpaw were obtained using the up/down method (Dixon, 1980) with seven Frey monofilaments (0.4, 1, 2, 4, 6, 8 and 15 grams). Each trial started with a von Frey force of 2 grams delivered to the right hindpaw for approximately 1-2 seconds and then the left hindpaw. If there was no withdrawal response, the next higher force was delivered. If there was a response, the next lower force was delivered. This procedure was performed until no response was made at the highest force (15 grams) or until four stimuli were administered following the initial response. Each test group contained 8 animals. The sham-operated control group, which were operated on but not subject to nerve ligation, contained 4 animals. […]

CNCC/C=C1\c2ccccc2C[C@@H](O)c2ccccc21 (stereo in doubt) [(−)-E-10-OH-NT]
IC50 [1]: 4400 nM | reduction of H1 histaminergic receptor affinity compared to AT [2]: 220 fold | reduction of H1 histaminergic receptor affinity compared to NT [2]: 40 fold | Ki (α2b adrenergic receptor): 4300 nM | Ki [3]: 390 nM | inhibition of gastrointestinal transit (% GIT) [4]: markedly lower inhibition of transit as compared to both AT and NT | antiallodynic activity [5]: statistically significant over that observed for the vehicle-treated control group; also recorded: greater than that observed for the vehicle-treated control group | antiallodynic activity, oral ([5]; p.o. and 60 mg/kg p.o.): greater than that observed for the vehicle-treated control

CNCC/C=C1\c2ccccc2C[C@H](O)c2ccccc21 (stereo in doubt) [(+)-E-10-OH-NT]
IC50 [1]: 860 nM | reduction of H1 histaminergic receptor affinity compared to AT [2]: 220 fold | reduction of H1 histaminergic receptor affinity compared to NT [2]: 40 fold | Ki (α2b adrenergic receptor): 4200 nM | Ki [3]: 820 nM | antiallodynic activity [5]: comparable to that of the vehicle-only control
